Measured values: publication PMC3506555, “[^11C]phenytoin revisited: synthesis by [^11C]CO carbonylation and first evaluation as a P-gp tracer in rats” (EJNMMI Research, 2012)
“And” between values parts separate entries of the source, which are not always exact repeats. Equal entries are not always repeated.

Columns and labels:
[1] = Arterial plasma radioactivity concentration during PET scans; type: in vivo, Sprague–Dawley rats
Description: For animals that underwent three scans, the amount of blood withdrawn was reduced by replacing the two samples at 15 and 30 min with a single 20-min sample. […] Standardized uptake values (SUVs) as a function of time were derived by normalizing measured radioactivity concentrations against injected dose and body weight.

[2] = Metabolite analysis in plasma after i.v. [11C]phenytoin; type: in vivo, Sprague–Dawley rats; conditions: for Percentage of intact [11C]phenytoin, plasma: rat plasma, N = 2
Description: Chemicals were obtained from Sigma Aldrich (St. Louis, MO, USA) and were used without further purification. All reactions were carried out under an argon atmosphere unless stated otherwise. [^11C]CO2 was produced using an IBA Cyclone 18/9 cyclotron (IBA, Louvain-La-Neuve, Belgium) by the ^14N(p,α)^11C nuclear reaction performed in a 0.5% O2/N2 gas mixture. Water was purified over a Millipore filter (Millipore, Leiden, The Netherlands). The silica gel used as stationary phase for flash column chromatography was grade 9385, 230 to 400 mesh, 60 Å and obtained from Sigma Aldrich. Chemical shifts (δ) of nuclear magnetic resonance (NMR) spectra were defined relative to the signal of the solvent (7.26 for CDCl3 and 2.50 for DMSO-d6) and measured on a Bruker Avance 250 (Bruker, Billerica, MA, USA), with δ reported in parts per million relative to the solvent. Infrared (IR) spectra were obtained using a Shimadzu FTIR-8400 S (Shimadzu, Kyoto, Japan), and wavelengths (ν) are reported in per centimeter and (s), (m) and (w), indicating strong, moderate and weak signal, respectively. Electrospray ionization high-resolution mass spectrometry (ESI-HRMS) was carried out using a Bruker microTOF-Q instrument in positive ion mode (capillary potential of 4.500 V); electrospray ionization mass spectrometry was carried out using an AB Sciex Qtrap 5500 LC-MS/MS instrument (AB Sciex, Foster City, CA, USA) in negative ion mode. Semi-preparative high performance liquid chromatography (HPLC) was performed on an ACE 5-μM C18, 250*10-mm column (Alltech, Nicholasville, KY, USA) using the following settings: wavelength 230 nm, eluent MeCN/H2O/TFA 60/40/0.15 (v/v/v) and flow 4 mL·min^−1 (method A). Analytical HPLC was performed on a Kromasil 100 C18 10-μM (4.6 to 250 mm) column (Grace Alltech, Breda, The Netherlands) with the following settings: wavelength 230 nm, eluent acetonitrile/water/[…] 75/25/0.2 (v/v/v) and flow 1 mL·min^−1 (method B). Metabolite analysis was performed on a Gemini C18 5-μm (10 to 250 mm) column (Phenomenex, Torrance, CA, USA) (method C) with gradient and a mixture of (A) acetonitrile and (B) 0.1% trifluoro acetic acid in H2O as eluent according to the following scheme: 0 min, 90% B at 0.25 mL·min^−1; 0.5 min, 20% B at 4 mL·min^−1; 9.0 min, 30% B at 4 mL·min^−1; 13 min, 30% B at 4 mL·min^−1; 14.0 min, 90% B at 4.0 mL·min^−1 and 15 min, 90% B at 0.25 mL·min^−1. Tetrahydrofuran (THF), which was used during experiments, was distilled over LiAlH4 just prior to the experiments unless stated otherwise.
To study the metabolic profile of [^11C]phenytoin in the plasma and brain, five male Sprague–Dawley rats were injected with 150 to 250 MBq [^11C]phenytoin in the tail vein under isoflurane anesthesia. Three of these animals were pretreated with 15 mg·kg^−1 tariquidar 20 min prior to [^11C]phenytoin administration. Three arterial blood samples of 0.5, 0.8 and 1.2 mL were withdrawn at 10, 30 and 45 min or at 5, 15 and 25 min after [^11C]phenytoin injection, respectively. Immediately following the last blood sample, the rats were euthanized, and the brain was isolated. All blood samples were collected in heparin tubes and centrifuged at 4.000 rpm for 5 min at 4°C (Hettich Universal 16, Depex B.V., The Netherlands). Plasma was separated from blood cells and, between 0.3 and 0.7 mL, was loaded onto a tC-18 Sep-Pak (Waters, The Netherlands) and washed with 20 mL of water. The eluate was defined as the polar radiolabeled metabolite fraction. Thereafter, the tC-18 Sep-Pak was eluted with 1.5 ml of methanol. This eluate was defined as the nonpolar fraction and was analyzed using HPLC method C. Brain tissue was homogenized with an ultrasonic homogenizer (Braunsonic 1510, Kronberg, Germany) in water, under ice cooling, and subsequently centrifuged at 4,000 rpm for 5 min at 4°C. Separated supernatants were loaded onto a tC-18 Sep-Pak and washed with 20 mL water to obtain the polar fraction.

SMILES: O=C1N[11C](=O)NC1(c1ccccc1)c1ccccc1 [[^11C]phenytoin]
- Initial plasma concentrations after tariquidar treatment versus baseline ([1]; initial part of scan): somewhat lower than at baseline
- Plasma concentrations after tariquidar treatment versus baseline ([1]; towards the end of the scans): similar
- Percentage of intact [11C]phenytoin, plasma ([2]; 5 min after injection): 60 ± 7%
- Percentage of intact [11C]phenytoin, plasma ([2]; 10 min after injection): 50 ± 16%
- Percentage of intact [11C]phenytoin, plasma ([2]; 15 min after injection): 38 ± 3%
- Percentage of intact [11C]phenytoin, plasma ([2]; 25 min after injection): 28 ± 2%
- Percentage of intact [11C]phenytoin, plasma ([2]; 30 min after injection): 32 ± 18%
- Percentage of intact [11C]phenytoin, plasma ([2]; 45 min after injection): 19% and 19 ± 8%
- Metabolism in tariquidar-treated versus untreated rats ([2]; tariquidar 15 mg·kg^−1, 20 min prior to tracer): no difference in metabolism
